Each block holds one compound with its values, some of them ahead of it.
Experiments:
[1] = in vitro, cited from earlier work
[2] = tested on: cultured lens; settings: bolus of 250 μM H2O2, incubated for 24 hrs
Method: FIG. 26: Cultured lens exposed to a bolus of 250 μM H2O2 incubated for 24 hrs.
Optimizing sensitivity for Raman. […] In previous in vitro studies Laser probes at 514 nm (82), and 647 nm (34) wavelengths were used for detection and characterization of Aβ-metal complex signature intensities in situ in lenses.

Compound: rat Aβ1-40: rat β-amyloid peptide 1-40, lacking two key metal chelating amino acids (DAEFGHDSGFEVRHQKLVFFAEDVGSNKGAIIGLMVGGVV; Amyloid-beta protein 40; UniProt P08592 672-711, looked up, fragment)
- H2O2 produced relative to human Aβ1-40 ([1]; rat peptides): ~20%

- light scattering indicative of lens opacification [2]: increases over time
Compound: OO [H2O2, hydrogen peroxide]

Compound: Aβ1-40: human β-amyloid peptide, 1-40 amino acid form derived from APP
- H2O2 produced relative to Aβ1-42 peptides ([1]; human peptides): ~50%
